# Source: ChEMBL document CHEMBL5154646, “Structure-guided optimization of 1H-imidazole-2-carboxylic acid derivatives affording potent VIM-Type metallo-β-lactamase inhibitors” (Eur J Med Chem, 2022)
# The source made the active and inactive calls. The calls are words filed in the database; no cut-off is given here.
# Columns and labels:
# [1] = Toxicity in ICR mouse assessed as effect on histological architecture of kidney at 500 to 2000 mg/kg, ip administered for 14 days by hematoxylin and eosin staining based histopathological assay; type: organism-based; details: in vivo, 336 h, dose 500-2000 mg/kg, time 14 day
# Escherichia coli [2] = test: Bactericidal activity against Escherichia coli C1580 expressing VIM-2 assessed as induction of bacterial ultrastructural changes by measuring cellular debris at 20 ug/ml incubated for 1 hr in presence of meropenem by transmission electron microscopy; type: functional, organism-based; details: dose 20.0 µg/ml
# [3] = Toxicity in ICR mouse assessed as change in overall appearance at 500 to 2000 mg/kg, ip administered for 14 days; type: organism-based; details: in vivo, 336 h, dose 500-2000 mg/kg, time 14 day
# [4] = Half life in Sprague-Dawley rat at 100 mg/kg, ip by UPLC analysis; type: ADME, organism-based; details: in vivo
# Pseudomonas aeruginosa [5] = test: Induction of morphological changes in Pseudomonas aeruginosa W35 expressing VIM-2 assessed as elongated morphology with localized swelling at 10 ug/ml incubated for 1 hr in presence of meropenem by confocal microscopic analysis; type: functional, organism-based; details: dose 10.0 µg/ml
# Pseudomonas aeruginosa [6] = test: Synergistic antibacterial activity against Pseudomonas aeruginosa W35 expressing VIM-2 assessed as fractional inhibitory concentration index incubated for 18 to 20 hrs in presence of meropenem by checkerboard microdilution assay; type: functional; details: time 18-20 hrs
# [7] = Inhibition of bacterial VIM-2 (27 to 266 residues) expressed in Escherichia coli Transetta (DE3) using FC-5 as substrate preincubated with enzyme for 10 mins followed by substrate addition in presence of 1 uM Zn2+ by fluorescence based analysis; design: species or system Bacteria
# Escherichia coli [8] = test: Antibacterial activity against Escherichia coli C1580 expressing VIM-2 assessed as elongated and filamentous bacterial cells at 20 ug/ml incubated for 1 hr in presence of meropenem by confocal microscopy; type: functional, organism-based; details: dose 20.0 µg/ml
# Pseudomonas aeruginosa [9] = test: Potentiation of meropenem-induced antibacterial activity against Pseudomonas aeruginosa 5621 expressing VIM-2 assessed as meropenem MIC at 100 ug/ml incubated for 18 to 20 hrs in presence of meropenem by CLSI based broth microtiter dilution method (reference value: 64 ug/ml); type: functional; details: dose 100 µg/ml, time 18-20 hrs
# [10] = Tmax in Sprague-Dawley rat at 100 mg/kg, ip by UPLC analysis; type: ADME, organism-based; details: in vivo
# Escherichia coli [11] = test: Synergistic antibacterial activity against Escherichia coli C1541 expressing VIM-2 assessed as fractional inhibitory concentration index incubated for 18 to 20 hrs in presence of meropenem by checkerboard microdilution assay; type: functional; details: time 18-20 hrs
# Escherichia coli [12] = test: Synergistic antibacterial activity against Escherichia coli C1541 expressing VIM-2 assessed as fractional inhibitory concentration index incubated for 18 to 20 hrs in presence of meropenem and 100 uM of zinc sulfate by checkerboard microdilution assay; type: functional; details: time 18-20 hrs
# Escherichia coli [13] = test: Synergistic antibacterial activity against Escherichia coli C1541 expressing VIM-2 assessed as fractional inhibitory concentration index incubated for 18 to 20 hrs in presence of meropenem and 1 uM of zinc sulfate by checkerboard microdilution assay; type: functional; details: time 18-20 hrs
structure (smiles),measurement,setting,value
O=C(O)c1nccn1Cc1ccncc1,Activity,[1],Non-Toxic
same,Activity,Escherichia coli [2],Active
same,Activity,[3],Non-Toxic
same,half-life,[4],74.4 min
same,Activity,Pseudomonas aeruginosa [5],Active
same,fractional inhibitory concentration index (FICI),Pseudomonas aeruginosa [6],0.25
same,IC50,[7],220 nM
same,Activity,Escherichia coli [8],Active
same,MIC,Pseudomonas aeruginosa [9],32 µg/mL
same,Tmax,[10],9 min
same,fractional inhibitory concentration index (FICI),Escherichia coli [11],0.05
same,fractional inhibitory concentration index (FICI),Escherichia coli [12],0.05
same,fractional inhibitory concentration index (FICI),Escherichia coli [13],0.05
